Measurements taken from PMC9025560, “A Comparison of Evans Blue and 4-(p-Iodophenyl)butyryl Albumin Binding Moieties on an Integrin αvβ6 Binding Peptide” (Pharmaceutics, 2022).
Read-outs that look alike come from different tables or passages of the source.

Assays:
BxPC-3 xenograft tumors = assay: Biodistribution in mice bearing BxPC-3 xenograft tumors; assay type: in vivo
Experimental: (§1) All animal procedures conformed to the Animal Welfare Act and were approved by the University of California, Davis Institutional Animal Care and Use Committee. Female athymic nu/nu-nude mice (6–8 weeks old) were purchased from Charles River Laboratories (Wilmington, MA, USA) and provided food and water on an ad libitum basis. BxPC-3 xenografts were implanted according to previous methods. Briefly, BxPC-3 cells were evaluated by flow cytometry to confirm integrin αvβ6 expression levels, injected subcutaneously into the left flank [5 million in 100 μL of a 1:1 mixture of serum-free RPMI and GFR Matrigel (Corning, New York, NY, USA)], and allowed to grow for approximately 3 weeks until tumors reached a diameter of 0.5–1 cm.
(§2) For biodistribution studies the [^64Cu]1–4 (3.7–5.55 MBq) in PBS (100 μL, pH 7.2) was injected intravenously (i.v.) via catheter into the tail vein. Following a conscious uptake period, the mice were anesthetized (5% isoflurane), euthanized, and dissected ([^64Cu]1 and [^64Cu]2, n = 3/radiolabeled peptide/time point; 4, 24, and 48 h p.i.; the 72 h time point was obtained from the imaging animals after the 72 h PET/CT scans; compounds [^64Cu]3 and [^64Cu]4, n = 2/radiolabeled compound at 4 h p.i.). Tissues were rapidly collected, weighed, and radioactivity measured with a γ-counter. Decay-corrected radioactivity concentrations are expressed as the percentage of injected dose per gram of tissue (% ID/g). Data are reported as mean ± standard deviation (SD) (Figure S20, S21 and S25).

[1] = as above; assay type: in vivo; details: female, athymic nu/nu-nude, mouse, in vivo, total radioactivity; for tissue uptake at 4 h: 4 h p.i.; for tissue uptake at 24 h: 24 h p.i.; for tissue uptake at 48 h: 48 h p.i.
Experimental: as §1, §2

[2] = iv, i.v., read-out: Blood uptake
[3] = iv, i.v., read-out: Bone uptake
[4] = iv, i.v., read-out: Brain uptake
[5] = iv, i.v., read-out: BxPC-3 Tumor uptake
[6] = iv, i.v., read-out: Fecal Matter radioactivity
[7] = iv, i.v., read-out: Gall Bladder uptake
[8] = iv, i.v., read-out: Heart uptake
[9] = iv, i.v., read-out: Kidneys uptake
[10] = iv, i.v., read-out: Lg. Intestines uptake
[11] = iv, i.v., read-out: Liver uptake
[12] = iv, i.v., read-out: Lung uptake
[13] = iv, i.v., read-out: Muscle uptake
[14] = iv, i.v., read-out: Pancreas uptake
[15] = iv, i.v., read-out: Skin uptake
[16] = iv, i.v., read-out: Sm. Intestines uptake
[17] = iv, i.v., read-out: Spleen uptake
[18] = iv, i.v., read-out: Stomach uptake
[19] = iv, i.v., read-out: Urine radioactivity

CC(C)C[C@H](NC(=O)[C@H](CC(=O)O)NC(=O)CNC(=O)[C@H](CCCNC(=N)N)NC(=O)[C@H](CC(C)C)NC(=O)[C@H](CC(N)=O)NC(=O)[C@@H]1CCCN1C(=O)[C@@H](NC(=O)[C@H](C)NC(=O)[C@H](CC(N)=O)NC(=O)CCOCCOCCOCCOCCOCCOCCOCCOCCOCCOCCOCCOCCOCCOCCOCCOCCOCCOCCOCCOCCOCCOCCOCCOCCOCCOCCOCCOCCNC(=O)[C@H](CCCCNC(=O)[C@H](CC(=O)O)NC(=O)CCCNC(=O)CCCc1ccc(I)cc1)NC(=O)CN1CCN(CC(=O)O)CCN(CC(=O)O)CCN(CC(=O)O)CC1)C(C)C)C(=O)N[C@@H](CCC(N)=O)C(=O)N[C@H](C(=O)N[C@@H](CC(C)C)C(=O)N[C@@H](C)C(=O)N[C@@H](CCC(N)=O)C(=O)N[C@@H](CCCNC(=N)N)C(=O)N[C@H](C(=O)N[C@@H](C)C(=O)N[C@@H](CCCNC(=N)N)C(=O)N[C@H](C(=O)NCCOCCOCCOCCOCCOCCOCCOCCOCCOCCOCCOCCOCCOCCOCCOCCOCCOCCOCCOCCOCCOCCOCCOCCOCCOCCOCCOCCOCCC(N)=O)[C@@H](C)O)C(C)C)C(C)C [[^64Cu]2, [^64Cu]Cu DOTA-IP-αvβ6-BP, metal not drawn]
Tumor-Blood ratio (BxPC-3 xenograft tumors; 4 h p.i.): > 4/1
Tumor-Kidney ratio (BxPC-3 xenograft tumors; 4 h p.i.): 0.23 ± 0.02
Tumor-Lg Intestines ratio (BxPC-3 xenograft tumors; 4 h p.i.): 0.78 ± 0.10
Tumor-Liver ratio (BxPC-3 xenograft tumors; 4 h p.i.): 3.2–4.9
Tumor-Muscle ratio (BxPC-3 xenograft tumors; 4 h p.i.): > 8/1
Tumor-Sm Intestines ratio (BxPC-3 xenograft tumors; 4 h p.i.): 0.80 ± 0.07
Tumor-Stomach ratio (BxPC-3 xenograft tumors; 4 h p.i.): 0.43 ± 0.07
BxPC-3 Tumor uptake (BxPC-3 xenograft tumors; 4 h p.i., i.v.): > 7.5 % ID/g
Kidneys uptake (BxPC-3 xenograft tumors; 4 h p.i., i.v.): 33.6 ± 5.4 % ID/g
Stomach uptake (BxPC-3 xenograft tumors; 4 h p.i., i.v.): 18.1 ± 2.9 % ID/g
Tumor-Blood ratio (BxPC-3 xenograft tumors; 4 h p.i., listed as [64Cu]2): 6.15 ± 0.47
Tumor-Liver ratio (BxPC-3 xenograft tumors; 4 h p.i., listed as [64Cu]2): 4.89 ± 0.63
Tumor-Muscle ratio (BxPC-3 xenograft tumors; 4 h p.i., listed as [64Cu]2): 8.16 ± 2.41
Tumor-Blood ratio (BxPC-3 xenograft tumors; 24 h p.i.): 21.86 ±5.94
Tumor-Kidney ratio (BxPC-3 xenograft tumors; 24 h p.i.): 0.20 ± 0.06
Tumor-Lg Intestines ratio (BxPC-3 xenograft tumors; 24 h p.i.): 0.81 ±0.24
Tumor-Liver ratio (BxPC-3 xenograft tumors; 24 h p.i.): 2.72 ± 0.62
Tumor-Muscle ratio (BxPC-3 xenograft tumors; 24 h p.i.): 5.87 ±2.04
Tumor-Sm Intestines ratio (BxPC-3 xenograft tumors; 24 h p.i.): 0.97 ±0.27
Tumor-Stomach ratio (BxPC-3 xenograft tumors; 24 h p.i.): 0.39 ±0.09
Tumor-Blood ratio (BxPC-3 xenograft tumors; 48 h p.i.): 22.11 ± 14.41
Tumor-Kidney ratio (BxPC-3 xenograft tumors; 48 h p.i.): 0.35 ± 0.14
Tumor-Lg Intestines ratio (BxPC-3 xenograft tumors; 48 h p.i.): 1.10 ± 0.47
Tumor-Liver ratio (BxPC-3 xenograft tumors; 48 h p.i.): 2.46 ± 0.97
Tumor-Muscle ratio (BxPC-3 xenograft tumors; 48 h p.i.): 6.68 ± 2.42
Tumor-Sm Intestines ratio (BxPC-3 xenograft tumors; 48 h p.i.): 1.81 ± 0.61
Tumor-Stomach ratio (BxPC-3 xenograft tumors; 48 h p.i.): 0.67 ± 0.27
Tumor-Blood ratio (BxPC-3 xenograft tumors; 72 h p.i.): 28.82 ± 2.64
Tumor-Kidney ratio (BxPC-3 xenograft tumors; 72 h p.i.): 0.44 ± 0.14
Tumor-Lg Intestines ratio (BxPC-3 xenograft tumors; 72 h p.i.): 1.63 ±0.32
Tumor-Liver ratio (BxPC-3 xenograft tumors; 72 h p.i.): 3.77 ± 0.72
Tumor-Muscle ratio (BxPC-3 xenograft tumors; 72 h p.i.): 6.70 ±1.74
Tumor-Sm Intestines ratio (BxPC-3 xenograft tumors; 72 h p.i.): 4.01 ±1.10
Tumor-Stomach ratio (BxPC-3 xenograft tumors; 72 h p.i.): 1.55 ±0.08
Fold increase in tumor accumulation over non-ABM [64Cu]Cu DOTA-αvβ6-BP (BxPC-3 xenograft tumors; BxPC-3 tumor model): > 3 fold
tissue uptake at 4 h [1, 2]: 1.21 ± 0.16 %ID/g
tissue uptake at 4 h [1, 3]: 0.59 ± 0.15 %ID/g
tissue uptake at 4 h [1, 4]: 0.12 ± 0.002 %ID/g
tissue uptake at 4 h [1, 5]: 7.6 ± 0.43 %ID/g
tissue uptake at 4 h [1, 6]: 9.32 ± 1.08 %ID/g
tissue uptake at 4 h [1, 7]: 4.33 ± 2.64 %ID/g
tissue uptake at 4 h [1, 8]: 2.22 ± 0.11 %ID/g
tissue uptake at 4 h [1, 9]: 33.6 ± 5.39 %ID/g
tissue uptake at 4 h [1, 10]: 9.83 ± 0.69 %ID/g
tissue uptake at 4 h [1, 11]: 1.58 ± 0.26 %ID/g
tissue uptake at 4 h [1, 12]: 2.25 ± 0.39 %ID/g
tissue uptake at 4 h [1, 13]: 0.99 ± 0.3 %ID/g
tissue uptake at 4 h [1, 14]: 1.04 ± 0.09 %ID/g
tissue uptake at 4 h [1, 15]: 2.72 ± 0.31 %ID/g
tissue uptake at 4 h [1, 16]: 9.55 ± 1.21 %ID/g
tissue uptake at 4 h [1, 17]: 0.41 ± 0.13 %ID/g
tissue uptake at 4 h [1, 18]: 18.1 ± 2.91 %ID/g
tissue uptake at 4 h [1, 19]: 25.1 ± 6.79 %ID/g
tissue uptake at 24 h [1, 2]: 0.2 ± 0.04 %ID/g
tissue uptake at 24 h [1, 3]: 0.28 ± 0.21 %ID/g
tissue uptake at 24 h [1, 4]: 0.08 ± 0.01 %ID/g
tissue uptake at 24 h [1, 5]: 4.41 ± 1.25 %ID/g
tissue uptake at 24 h [1, 6]: 4.58 ± 1.03 %ID/g
tissue uptake at 24 h [1, 7]: 5.05 ± 3.56 %ID/g
tissue uptake at 24 h [1, 8]: 1.61 ± 0.06 %ID/g
tissue uptake at 24 h [1, 9]: 21.9 ± 1.74 %ID/g
tissue uptake at 24 h [1, 10]: 5.58 ± 0.94 %ID/g
tissue uptake at 24 h [1, 11]: 1.62 ± 0.2 %ID/g
tissue uptake at 24 h [1, 12]: 1.69 ± 0.07 %ID/g
tissue uptake at 24 h [1, 13]: 0.78 ± 0.22 %ID/g
tissue uptake at 24 h [1, 14]: 0.78 ± 0.01 %ID/g
tissue uptake at 24 h [1, 15]: 1.48 ± 0.03 %ID/g
tissue uptake at 24 h [1, 16]: 4.58 ± 0.62 %ID/g
tissue uptake at 24 h [1, 17]: 0.31 ± 0.05 %ID/g
tissue uptake at 24 h [1, 18]: 11.1 ± 1.16 %ID/g
tissue uptake at 24 h [1, 19]: 1.7 ± 1.91 %ID/g
tissue uptake at 48 h [1, 2]: 0.2 ± 0.04 %ID/g
tissue uptake at 48 h [1, 3]: 0.24 ± 0.09 %ID/g
tissue uptake at 48 h [1, 4]: 0.09 ± 0.01 %ID/g
tissue uptake at 48 h [1, 5]: 4.09 ± 1.28 %ID/g
tissue uptake at 48 h [1, 6]: 2.67 ± 0.58 %ID/g
tissue uptake at 48 h [1, 7]: 2.83 ± 0.86 %ID/g
tissue uptake at 48 h [1, 8]: 1.43 ± 0.2 %ID/g
tissue uptake at 48 h [1, 9]: 11.8 ± 1.02 %ID/g
tissue uptake at 48 h [1, 10]: 3.95 ± 0.81 %ID/g
tissue uptake at 48 h [1, 11]: 1.71 ± 0.21 %ID/g
tissue uptake at 48 h [1, 12]: 1.33 ± 0.15 %ID/g
tissue uptake at 48 h [1, 13]: 0.63 ± 0.07 %ID/g
tissue uptake at 48 h [1, 14]: 0.64 ± 0.08 %ID/g
tissue uptake at 48 h [1, 15]: 1.22 ± 0.22 %ID/g
tissue uptake at 48 h [1, 16]: 2.28 ± 0.1 %ID/g
tissue uptake at 48 h [1, 17]: 0.35 ± 0.05 %ID/g
tissue uptake at 48 h [1, 18]: 6.4 ± 1.02 %ID/g
tissue uptake at 48 h [1, 19]: 3.24 ± 1.03 %ID/g
tissue uptake at 72 h ([1]; iv, 72 h p.i., i.v., read-out: Blood uptake): 0.17 ± 0.001 %ID/g
tissue uptake at 72 h ([1]; iv, 72 h p.i., i.v., read-out: Bone uptake): 0.26 ± 0.01 %ID/g
tissue uptake at 72 h ([1]; iv, 72 h p.i., i.v., read-out: Brain uptake): 0.1 ± 0.02 %ID/g
tissue uptake at 72 h ([1]; iv, 72 h p.i., i.v., read-out: BxPC-3 Tumor uptake): 4.91 ± 1.19 %ID/g
tissue uptake at 72 h ([1]; iv, 72 h p.i., i.v., read-out: Fecal Matter radioactivity): 2.29 ± 0.53 %ID/g
tissue uptake at 72 h ([1]; iv, 72 h p.i., i.v., read-out: Gall Bladder uptake): 3.21 ± 1.02 %ID/g
tissue uptake at 72 h ([1]; iv, 72 h p.i., i.v., read-out: Heart uptake): 1.05 ± 0.05 %ID/g
tissue uptake at 72 h ([1]; iv, 72 h p.i., i.v., read-out: Kidneys uptake): 11.5 ± 1.02 %ID/g
tissue uptake at 72 h ([1]; iv, 72 h p.i., i.v., read-out: Lg. Intestines uptake): 3 ± 0.37 %ID/g
tissue uptake at 72 h ([1]; iv, 72 h p.i., i.v., read-out: Liver uptake): 1.3 ± 0.13 %ID/g
tissue uptake at 72 h ([1]; iv, 72 h p.i., i.v., read-out: Lung uptake): 1.16 ± 0.22 %ID/g
tissue uptake at 72 h ([1]; iv, 72 h p.i., i.v., read-out: Muscle uptake): 0.76 ± 0.24 %ID/g
tissue uptake at 72 h ([1]; iv, 72 h p.i., i.v., read-out: Pancreas uptake): 0.57 ± 0.06 %ID/g
tissue uptake at 72 h ([1]; iv, 72 h p.i., i.v., read-out: Skin uptake): 0.92 ± 0.14 %ID/g
tissue uptake at 72 h ([1]; iv, 72 h p.i., i.v., read-out: Sm. Intestines uptake): 1.24 ± 0.11 %ID/g
tissue uptake at 72 h ([1]; iv, 72 h p.i., i.v., read-out: Spleen uptake): 0.38 ± 0.14 %ID/g
tissue uptake at 72 h ([1]; iv, 72 h p.i., i.v., read-out: Stomach uptake): 3.14 ± 0.62 %ID/g
tissue uptake at 72 h ([1]; iv, 72 h p.i., i.v., read-out: Urine radioactivity): 1.46 ± 1.17 %ID/g
tissue uptake at 72 h ([1]; 72 h, read-out: GI uptake): < 3.2 %ID/g
tissue uptake ([1]; throughout 4–72 h, read-out: Liver uptake throughout): < 3 %ID/g
